Results taken from patent publication EP4582426A1, “PAN-KRAS INHIBITOR COMPOUND” (Adlai Nortye Biopharma Co., Ltd., priority 2022, dated 2024).

Columns and labels:
AsPC-1 (G12D) = assay: In vitro cell proliferation inhibition test (CellTiter-Glo Luminescent Cell Viability Assay); format: cell-based; conditions: AsPC-1 cell line, Pancreas, KRAS (p.G12D), cells and compounds co-incubated 72 hours
Summary of the method: (§1)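 Cells were seeded at 1000-5000/well and cultured overnight, then exposed to compound (top final 10 µM, ten 3-fold dilutions) for 72 h at 37°C, 5% CO2. Viability was read by CellTiter-Glo luminescence; IC50 was obtained from four-parameter fits of normalized signal.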

SW480 (G12V) = assay: as above; format: cell-based; conditions: SW480 cell line, Large intestine, Colon, KRAS (p.G12V), cells and compounds co-incubated 72 hours
Summary of the method: as §1

Compound | IC50 (AsPC-1 (G12D); Homo sapiens, ASPC1) [nM] | IC50 (SW480 (G12V); Homo sapiens) [nM] | IC50 (AsPC-1 (G12D)) [nM] | IC50 (SW480 (G12V)) [nM]
CCn1c(-c2cc(C#CCN3CCOCC3CO)cnc2C(C)OC)c2c3cc(ccc31)-c1csc(n1)CC(NC(=O)C1C(C)C1C)C(=O)N1CCCC(N1)C(=O)OCC(C)(C)C2 (single isomer, unassigned) [Example 25] |  |  | 0.35 | 0.51
CCn1c(-c2cc(C#CCN3CCOCC3)cnc2[C@H](C)OC)c2c3cc(ccc31)-c1csc(n1)C[C@H](NC(=O)C1(C(F)(F)F)CC1)C(=O)N1CCC[C@H](N1)C(=O)OCC(C)(C)C2 (single isomer, unassigned) [Example 26] |  |  | 20.8 | 34.6
CCn1c(-c2cc(C#Cc3cccc4c3ccn4C)cnc2[C@H](C)OC)c2c3cc(ccc31)-c1csc(n1)C[C@H](NC(=O)[C@H]1C[C@@H]1C)C(=O)N1CCC[C@H](N1)C(=O)OCC(C)(C)C2 [Example 56, (1S,2S)-N-((6^3S,4S,Z)-1^1-ethyl-1^2-(2-((S)-1-methoxyethyl)-5-((1-methyl-1H-indol-4-yl)ethynyl)pyridin-3-yl)-10,10-dimethyl-5,7-dioxo-6^1,6^2,6^3,6^4,6^5,6^6-hexahydro-1^1H-8-oxa-2(4,2)-thiazola-1(5,3)-indola-6(1,3)-pyridazinacycloundecaphane-4-yl)-2-methylcyclopropane-1-carboxamide] |  |  | 291 | 487

Further lines, with some results ahead:

IC50 (AsPC-1 (G12D); Homo sapiens, ASPC1) [nM] | IC50 (SW480 (G12V); Homo sapiens) [nM] | Compound | IC50 (AsPC-1 (G12D)) [nM] | IC50 (SW480 (G12V)) [nM]
56 | 37 | CCn1c(-c2cc(C#Cc3cnc(N)cn3)cnc2[C@H](C)OC)c2c3cc(ccc31)-c1csc(n1)C[C@H](NC(=O)[C@H]1C[C@@H]1C)C(=O)N1CCC[C@H](N1)C(=O)OCC(C)(C)C2 [Example 35, (1S,2S)-N-((6^3S,4S,Z)-1^2-(5-((5-aminopyrazin-2-yl)ethynyl)-2-((S)-1-methoxyethyl)pyridin-3-yl)-1^1-ethyl-10,10-dimethyl-5,7-dioxo-6^1,6^2,6^3,6^4,6^5,6^6-hexahydro-1^1H-8-oxa-2(4,2)-thiazola-1(5,3)-indola-6(1,3)-pyridazinacycloundecaphane-4-yl)-2-methylcyclopropane-1-carboxamide] |  | 
456 | 116 | CCn1c(-c2cc(C#Cc3cccc4ccn(C)c34)cnc2[C@H](C)OC)c2c3cc(ccc31)-c1csc(n1)C[C@H](NC(=O)[C@H]1C[C@@H]1C)C(=O)N1CCC[C@H](N1)C(=O)OCC(C)(C)C2 [Example 47, (1S,2S)-N-((6^3S,4S,Z)-1^1-ethyl-1^2-(2-((S)-1-methoxyethyl)-5-((1-methyl-1H-indol-7-yl)ethynyl)pyridin-3-yl)-10,10-dimethyl-5,7-dioxo-6^1,6^2,6^3,6^4,6^5,6^6-hexahydro-1^1H-8-oxa-2(4,2)-thiazola-1(5,3)-indola-6(1,3)-pyridazinacycloundecaphane-4-yl)-2-methylcyclopropane-1-carboxamide] |  | 
